Results on eight molecules are retold here after EP4745135A1 (Gluetacs Therapeutics (Shanghai) Co., Ltd., priority 2023, dated 2025).

For one test, the system named is GSPT1. The experiment in a line: Western blot, degradation of substrate protein in hPBMCs. In kind it is cell-based, Human. The following applies: 24 hours treatment, compounds at 50 nM and 500 nM (concentration behind the class not stated). Background: In western blotting, separated proteins are transferred to a membrane and probed.
Test [1] deals with T1, human Cereblon WT GST-tagged protein (Homo sapiens, UniProt Q96SW2).
T1 construct: purchased CISBIO 64BDCRBNPEH
The experiment in a line: CRBN-binding affinity, HTRF (CEREBLON BINDING kit). The following applies: for inhibition at 0.5 µM: read-out: Inhibition Rate at 0.5 µM (%); for inhibition at 2 µM: read-out: Inhibition Rate at 2 µM (%).

In the next test the target is T2, IKZF2 (Homo sapiens, UniProt Q96SW2+Q9UKS7).
T2 construct: effects of the compounds of the present disclosure on the expression of target proteins in cells; endogenous in cells; host or cells: human PBMCs (Milecell Biotechnologies)
Description: Western blot, degradation of substrate protein in hPBMCs. In kind it is cell-based. The note with it: 24 hours treatment, compounds at 50 nM and 500 nM (concentration behind the class not stated).

For the next test, the target named is T3, CK1α (Homo sapiens, UniProt P48729+Q96SW2).
T3 construct: effects of the compounds of the present disclosure on the expression of target proteins in cells; endogenous in cells; host or cells: human PBMCs (Milecell Biotechnologies)
The test is described as above. It is filed as cell-based. The note with it: 24 hours treatment, compounds at 50 nM and 500 nM (concentration behind the class not stated).

In the next test the target is T4, IKZF3 (Homo sapiens, UniProt Q96SW2+Q9UKT9).
T4 construct: effects of the compounds of the present disclosure on the expression of target proteins in cells; endogenous in cells; host or cells: human PBMCs (Milecell Biotechnologies)
The test is described as above. It is filed as cell-based. The following applies: 24 hours treatment, compounds at 50 nM and 500 nM (concentration behind the class not stated).

Another test has as its target T5, WEE1 (Homo sapiens, UniProt P30291+Q96SW2).
T5 construct: effects of the compounds of the present disclosure on the expression of target proteins in cells; endogenous in cells; host or cells: human PBMCs (Milecell Biotechnologies)
The description is as above. In kind it is cell-based. The following applies: 24 hours treatment, compounds at 50 nM and 500 nM (concentration behind the class not stated).

The target of a further test is T6, IKZF1 (Homo sapiens, UniProt Q13422+Q96SW2).
T6 construct: effects of the compounds of the present disclosure on the expression of target proteins in cells; endogenous in cells; host or cells: human PBMCs (Milecell Biotechnologies)
Described as above. It is filed as cell-based. The following applies: 24 hours treatment, compounds at 50 nM and 500 nM (concentration behind the class not stated).

T5 sequence (P30291 whole entry): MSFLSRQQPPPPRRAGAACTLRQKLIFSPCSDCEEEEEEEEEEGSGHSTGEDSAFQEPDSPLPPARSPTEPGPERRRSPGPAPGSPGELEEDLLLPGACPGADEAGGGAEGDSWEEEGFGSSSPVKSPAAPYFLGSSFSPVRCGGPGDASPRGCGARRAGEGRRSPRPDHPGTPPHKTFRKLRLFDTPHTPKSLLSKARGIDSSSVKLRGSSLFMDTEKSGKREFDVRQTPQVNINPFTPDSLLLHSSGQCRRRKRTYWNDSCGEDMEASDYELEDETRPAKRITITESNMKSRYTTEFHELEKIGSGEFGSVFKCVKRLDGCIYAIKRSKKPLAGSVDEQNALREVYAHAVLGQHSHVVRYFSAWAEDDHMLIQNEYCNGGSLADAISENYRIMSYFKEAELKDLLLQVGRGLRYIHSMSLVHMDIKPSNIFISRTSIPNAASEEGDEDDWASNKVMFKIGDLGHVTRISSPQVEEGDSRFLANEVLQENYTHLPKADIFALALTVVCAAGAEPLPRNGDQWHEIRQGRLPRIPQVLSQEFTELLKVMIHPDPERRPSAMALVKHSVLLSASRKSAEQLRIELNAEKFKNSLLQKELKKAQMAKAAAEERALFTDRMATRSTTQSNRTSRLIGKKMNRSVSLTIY
T5 sequence (Q96SW2 whole entry): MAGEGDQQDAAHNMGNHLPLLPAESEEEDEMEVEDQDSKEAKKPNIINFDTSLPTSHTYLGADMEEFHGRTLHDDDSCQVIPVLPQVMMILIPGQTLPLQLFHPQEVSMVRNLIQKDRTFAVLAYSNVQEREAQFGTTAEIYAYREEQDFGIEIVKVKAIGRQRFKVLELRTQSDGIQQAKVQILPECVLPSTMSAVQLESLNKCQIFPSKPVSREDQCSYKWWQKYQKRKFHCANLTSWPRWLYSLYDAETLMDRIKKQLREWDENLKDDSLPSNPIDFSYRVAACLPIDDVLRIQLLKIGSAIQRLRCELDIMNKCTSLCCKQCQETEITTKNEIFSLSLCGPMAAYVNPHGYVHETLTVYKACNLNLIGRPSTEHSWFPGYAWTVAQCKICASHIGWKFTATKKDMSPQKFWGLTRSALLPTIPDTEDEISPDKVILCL
T5 sequence (Q16531 whole entry partner): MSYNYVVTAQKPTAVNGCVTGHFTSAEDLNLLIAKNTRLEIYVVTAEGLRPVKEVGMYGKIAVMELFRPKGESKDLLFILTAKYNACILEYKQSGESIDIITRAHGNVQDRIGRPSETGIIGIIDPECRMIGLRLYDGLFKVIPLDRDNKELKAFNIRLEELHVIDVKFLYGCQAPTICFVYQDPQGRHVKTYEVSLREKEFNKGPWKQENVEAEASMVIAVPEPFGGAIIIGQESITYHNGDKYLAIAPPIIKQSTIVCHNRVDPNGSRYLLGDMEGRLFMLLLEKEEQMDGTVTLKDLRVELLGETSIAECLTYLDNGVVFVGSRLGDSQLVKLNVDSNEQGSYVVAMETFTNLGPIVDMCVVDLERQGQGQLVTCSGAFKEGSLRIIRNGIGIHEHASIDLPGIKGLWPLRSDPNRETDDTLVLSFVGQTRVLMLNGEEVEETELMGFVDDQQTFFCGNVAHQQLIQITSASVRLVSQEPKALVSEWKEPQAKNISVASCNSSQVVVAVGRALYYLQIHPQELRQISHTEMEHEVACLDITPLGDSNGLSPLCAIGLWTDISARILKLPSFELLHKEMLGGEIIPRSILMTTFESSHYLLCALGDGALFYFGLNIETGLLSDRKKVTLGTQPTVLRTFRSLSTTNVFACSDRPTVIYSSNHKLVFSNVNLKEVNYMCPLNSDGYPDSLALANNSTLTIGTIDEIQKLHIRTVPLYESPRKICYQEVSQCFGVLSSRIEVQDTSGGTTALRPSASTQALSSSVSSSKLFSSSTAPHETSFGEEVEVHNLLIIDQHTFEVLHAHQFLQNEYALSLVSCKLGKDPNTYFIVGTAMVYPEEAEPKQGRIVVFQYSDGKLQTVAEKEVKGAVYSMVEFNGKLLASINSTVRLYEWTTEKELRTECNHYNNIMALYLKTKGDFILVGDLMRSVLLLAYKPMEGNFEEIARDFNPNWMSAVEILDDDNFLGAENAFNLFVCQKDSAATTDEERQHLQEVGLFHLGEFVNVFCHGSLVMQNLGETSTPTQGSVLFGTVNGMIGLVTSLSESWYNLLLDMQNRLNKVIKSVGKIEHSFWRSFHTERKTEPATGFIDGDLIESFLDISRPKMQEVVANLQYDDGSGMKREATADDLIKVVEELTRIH
T1 sequence (Q96SW2 whole entry): as the sequence (Q96SW2 whole entry) above
T3 sequence (P48729 whole entry): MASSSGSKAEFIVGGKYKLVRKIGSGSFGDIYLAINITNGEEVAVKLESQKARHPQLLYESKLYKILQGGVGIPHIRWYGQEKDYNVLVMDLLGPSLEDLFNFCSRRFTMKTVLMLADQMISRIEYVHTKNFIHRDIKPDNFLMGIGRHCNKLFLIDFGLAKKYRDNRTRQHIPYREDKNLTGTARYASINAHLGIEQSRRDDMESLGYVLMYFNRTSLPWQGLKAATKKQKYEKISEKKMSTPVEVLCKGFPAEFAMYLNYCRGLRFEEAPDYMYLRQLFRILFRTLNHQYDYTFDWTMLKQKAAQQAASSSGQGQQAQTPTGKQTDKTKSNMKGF
T3 sequence (Q96SW2 whole entry): as the sequence (Q96SW2 whole entry) above
T3 sequence (Q16531 whole entry partner): as the sequence (Q16531 whole entry partner) above
T2 sequence (Q9UKS7 whole entry): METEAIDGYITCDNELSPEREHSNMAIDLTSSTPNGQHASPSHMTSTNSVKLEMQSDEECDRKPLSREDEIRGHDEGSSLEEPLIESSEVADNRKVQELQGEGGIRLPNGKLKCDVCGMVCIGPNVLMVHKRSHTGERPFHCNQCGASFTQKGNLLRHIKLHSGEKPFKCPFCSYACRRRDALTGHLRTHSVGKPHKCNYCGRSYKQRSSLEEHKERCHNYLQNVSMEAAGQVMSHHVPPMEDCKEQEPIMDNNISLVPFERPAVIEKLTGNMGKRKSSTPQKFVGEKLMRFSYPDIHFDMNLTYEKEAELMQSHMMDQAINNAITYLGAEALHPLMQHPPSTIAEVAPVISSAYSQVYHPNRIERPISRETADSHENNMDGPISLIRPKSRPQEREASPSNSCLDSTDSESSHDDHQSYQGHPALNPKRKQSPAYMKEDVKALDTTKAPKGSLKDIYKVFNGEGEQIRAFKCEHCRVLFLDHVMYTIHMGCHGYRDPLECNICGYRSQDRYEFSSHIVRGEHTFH
T2 sequence (Q96SW2 whole entry): as the sequence (Q96SW2 whole entry) above
T2 sequence (Q16531 whole entry partner): as the sequence (Q16531 whole entry partner) above
T6 sequence (Q13422 whole entry): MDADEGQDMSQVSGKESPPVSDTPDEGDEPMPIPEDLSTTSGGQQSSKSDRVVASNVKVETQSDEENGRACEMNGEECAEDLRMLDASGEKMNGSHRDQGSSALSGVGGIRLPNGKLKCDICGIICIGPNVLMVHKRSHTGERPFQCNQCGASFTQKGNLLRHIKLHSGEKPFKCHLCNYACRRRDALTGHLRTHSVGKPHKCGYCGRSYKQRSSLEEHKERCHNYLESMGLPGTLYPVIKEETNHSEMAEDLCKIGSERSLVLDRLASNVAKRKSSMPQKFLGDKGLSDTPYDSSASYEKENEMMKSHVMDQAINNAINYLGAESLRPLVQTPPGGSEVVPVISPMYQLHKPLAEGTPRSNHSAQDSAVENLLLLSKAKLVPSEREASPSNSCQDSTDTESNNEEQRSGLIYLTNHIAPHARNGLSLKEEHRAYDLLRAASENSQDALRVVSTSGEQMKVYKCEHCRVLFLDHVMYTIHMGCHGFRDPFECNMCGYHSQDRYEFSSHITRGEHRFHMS
T6 sequence (Q96SW2 whole entry): as the sequence (Q96SW2 whole entry) above
T6 sequence (Q16531 whole entry partner): as the sequence (Q16531 whole entry partner) above
T4 sequence (Q9UKT9 whole entry): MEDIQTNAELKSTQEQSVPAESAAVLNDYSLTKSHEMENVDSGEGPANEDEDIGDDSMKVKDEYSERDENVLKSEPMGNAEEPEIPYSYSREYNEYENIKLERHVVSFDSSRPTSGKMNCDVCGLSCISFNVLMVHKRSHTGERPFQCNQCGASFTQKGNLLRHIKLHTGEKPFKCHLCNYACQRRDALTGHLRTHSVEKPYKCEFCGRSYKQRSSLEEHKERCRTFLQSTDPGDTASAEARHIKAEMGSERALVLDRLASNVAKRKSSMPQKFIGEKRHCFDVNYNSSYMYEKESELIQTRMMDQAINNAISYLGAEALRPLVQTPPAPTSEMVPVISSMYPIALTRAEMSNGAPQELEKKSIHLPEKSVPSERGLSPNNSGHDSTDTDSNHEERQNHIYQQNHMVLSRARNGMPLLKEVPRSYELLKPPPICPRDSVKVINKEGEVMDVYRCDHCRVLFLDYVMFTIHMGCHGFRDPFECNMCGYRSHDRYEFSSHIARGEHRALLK
T4 sequence (Q96SW2 whole entry): as the sequence (Q96SW2 whole entry) above
T4 sequence (Q16531 whole entry partner): as the sequence (Q16531 whole entry partner) above

For the molecule `Cc1nc(N2CCN(Cc3ccc4c(c3)CN(C3CCC(=O)NC3=O)C4=S)CC2)c2c3c(sc2n1)CCCC3` (stereo not shown) [GT-09299, 3-(5-((4-(2-methyl-5,6,7,8-tetrahydrobenzo[4,5]thieno[2,3-d]pyrimidin-4-yl)piperazin-1-yl)methyl)-1-thioxoisoindolin-2-yl)piperidine-2,6-dione], the “GSPT1 substrate protein remaining %” value in the test on GSPT1 is recorded as “B (80%< substrate protein remaining %≤ 100%)”. Moreover, in test [1], the inhibition at 0.5 µM was in the range of 53 to 60% and the inhibition at 2 µM fell in the range of 80 to 100%. Besides, at IKZF2, the “IKZF2 substrate protein remaining %” value is “A (0% ≤ substrate protein remaining % ≤ 80%)”. Also, the “CK1α substrate protein remaining %” value on CK1α is given as “B (80%< substrate protein remaining %≤ 100%)”. Besides, the “IKZF3 substrate protein remaining %” value on IKZF3 is “A (0% ≤ substrate protein remaining % ≤ 80%)”. The “Wee1 substrate protein remaining %” value at WEE1 is given as “B (80%< substrate protein remaining %≤ 100%)”. Also, the “IKZF 1 substrate protein remaining %” value at IKZF1 was “B (80%< substrate protein remaining %≤ 100%)”.

In the case of `O=C1CCC(N2Cc3cc(CN4CCN(c5ncnc6sc7c(c56)CCCC7)CC4)ccc3C2=S)C(=O)N1` (stereo not shown) [GT-09300, 3-(5-((4-(5,6,7,8-tetrahydrobenzo[4,5]thieno[2,3-d]pyrimidin-4-yl)piperazin-1-yl)methyl)-1-thioxoisoindolin-2-yl)piperidine-2,6-dione], in the test on GSPT1, the “GSPT1 substrate protein remaining %” value is listed as “B (80%< substrate protein remaining %≤ 100%)”. In test [1], the inhibition at 0.5 µM was 53 to 60% and the inhibition at 2 µM lay in the range of 80 to 100%. The “IKZF2 substrate protein remaining %” value on IKZF2 was “A (0% ≤ substrate protein remaining % ≤ 80%)”. Besides, the “CK1α substrate protein remaining %” value at CK1α is “B (80%< substrate protein remaining %≤ 100%)”. The “IKZF3 substrate protein remaining %” value at IKZF3 is listed as “A (0% ≤ substrate protein remaining % ≤ 80%)”. Further, the “Wee1 substrate protein remaining %” value at WEE1 is reported as “B (80%< substrate protein remaining %≤ 100%)”. For the same molecule, at IKZF1, the “IKZF 1 substrate protein remaining %” value is “A (0% ≤ substrate protein remaining % ≤ 80%)”.

On to `O=C1CCC(N2Cc3cc(CN4CCN(c5ncnc6sc7c(c56)CCC7)CC4)ccc3C2=S)C(=O)N1` (stereo not shown) [GT-09301, 3-(5-((4-(6,7-dihydro-5H-cyclopenta[4,5]thieno[2,3-d]pyrimidin-4-yl)piperazin-1-yl)methyl)-1-thioxoisoindolin-2-yl)piperidine-2,6-dione], for which, in the test with GSPT1, the “GSPT1 substrate protein remaining %” value was “B (80%< substrate protein remaining %≤ 100%)”. In test [1], the inhibition at 0.5 µM fell in the range of 60 to 80% and the inhibition at 2 µM was in the range of 80 to 100%. The “IKZF2 substrate protein remaining %” value at IKZF2 is reported as “A (0% ≤ substrate protein remaining % ≤ 80%)”. For the same molecule, the “CK1α substrate protein remaining %” value on CK1α was “B (80%< substrate protein remaining %≤ 100%)”. Further, at IKZF3, the “IKZF3 substrate protein remaining %” value is “A (0% ≤ substrate protein remaining % ≤ 80%)”. At WEE1, the “Wee1 substrate protein remaining %” value is “B (80%< substrate protein remaining %≤ 100%)”. Also, at IKZF1, the “IKZF 1 substrate protein remaining %” value is reported as “A (0% ≤ substrate protein remaining % ≤ 80%)”.

Take `O=C1CCC(N2Cc3cc(CN4CCC(c5ncnc6scc(-c7ccccc7)c56)CC4)ccc3C2=S)C(=O)N1` (stereo not shown) [GT-09307, 3-(5-((4-(5-phenylthieno[2,3-d]pyrimidin-4-yl)piperidin-1-yl)methyl)-1-thioxoisoindolin-2-yl)piperidine-2,6-dione]: in the test on GSPT1, the “GSPT1 substrate protein remaining %” value is given as “A (0% ≤ substrate protein remaining % ≤ 80%)”. In test [1], the inhibition at 0.5 µM is 60 to 80% and the inhibition at 2 µM was 80 to 100%. For the same molecule, the “IKZF2 substrate protein remaining %” value at IKZF2 was “B (80%< substrate protein remaining %≤ 100%)”. For the same molecule, the “CK1α substrate protein remaining %” value on CK1α is listed as “A (0% ≤ substrate protein remaining % ≤ 80%)”. Moreover, the “IKZF3 substrate protein remaining %” value at IKZF3 is reported as “A (0% ≤ substrate protein remaining % ≤ 80%)”. For the same molecule, the “Wee1 substrate protein remaining %” value on WEE1 is on record as “A (0% ≤ substrate protein remaining % ≤ 80%)”. Further, the “IKZF 1 substrate protein remaining %” value on IKZF1 is recorded as “A (0% ≤ substrate protein remaining % ≤ 80%)”.

Take `Cc1nc(C2CCN(Cc3ccc4c(c3)CN(C3CCC(=O)NC3=O)C4=S)CC2)c2ccsc2n1` (stereo not shown) [GT-09309, 3-(5-((4-(2-methylthieno[2,3-d]pyrimidin-4-yl)piperidin-1-yl)methyl)-1-thioxoisoindolin-2-yl)piperidine-2,6-dione]: the “GSPT1 substrate protein remaining %” value with GSPT1 is given as “A (0% ≤ substrate protein remaining % ≤ 80%)”. Besides, in test [1], the inhibition at 0.5 µM fell in the range of 60 to 80% and the inhibition at 2 µM lay within 80 to 100%. Also, the “IKZF2 substrate protein remaining %” value on IKZF2 is “B (80%< substrate protein remaining %≤ 100%)”. In addition, on CK1α, the “CK1α substrate protein remaining %” value was “B (80%< substrate protein remaining %≤ 100%)”. At IKZF3, the “IKZF3 substrate protein remaining %” value is recorded as “B (80%< substrate protein remaining %≤ 100%)”. Moreover, the “Wee1 substrate protein remaining %” value on WEE1 is given as “B (80%< substrate protein remaining %≤ 100%)”. Also, at IKZF1, the “IKZF 1 substrate protein remaining %” value is “B (80%< substrate protein remaining %≤ 100%)”.

As to `Cc1nc(C2CCN(Cc3ccc4c(c3)CN(C3CCC(=O)NC3=O)C4=S)CC2)c2c3c(sc2n1)CCCC3` (stereo not shown) [GT-09310, 3-(5-((4-(2-methyl-5,6,7,8-tetrahydrobenzo[4,5]thieno[2,3-d]pyrimidin-4-yl)piperidin-1-yl)methyl)-1-thioxoisoindolin-2-yl)piperidine-2,6-dione], in the test on GSPT1, the “GSPT1 substrate protein remaining %” value is on record as “A (0% ≤ substrate protein remaining % ≤ 80%)”. Further, in test [1], the inhibition at 0.5 µM is 53 to 60% and the inhibition at 2 µM was 80 to 100%. Moreover, the “IKZF2 substrate protein remaining %” value on IKZF2 is reported as “B (80%< substrate protein remaining %≤ 100%)”. Also, the “CK1α substrate protein remaining %” value on CK1α is reported as “B (80%< substrate protein remaining %≤ 100%)”. For the same molecule, the “IKZF3 substrate protein remaining %” value at IKZF3 was “A (0% ≤ substrate protein remaining % ≤ 80%)”. Besides, on WEE1, the “Wee1 substrate protein remaining %” value is reported as “B (80%< substrate protein remaining %≤ 100%)”. For the same molecule, the “IKZF 1 substrate protein remaining %” value on IKZF1 is “B (80%< substrate protein remaining %≤ 100%)”.

On to `O=C1CCC(N2Cc3cc(CN4CCC(c5ncnc6sc7c(c56)CCC7)CC4)ccc3C2=S)C(=O)N1` (stereo not shown) [GT-09311, 3-(5-((4-(6,7-dihydro-5H-cyclopenta[4,5]thieno[2,3-d]pyrimidin-4-yl)piperidin-1-yl)methyl)-1-thioxoisoindolin-2-yl)piperidine-2,6-dione], for which the “GSPT1 substrate protein remaining %” value with GSPT1 is “A (0% ≤ substrate protein remaining % ≤ 80%)”. Besides, in test [1], the inhibition at 0.5 µM lay within 60 to 80% and the inhibition at 2 µM lay within 80 to 100%. The “IKZF2 substrate protein remaining %” value at IKZF2 is given as “B (80%< substrate protein remaining %≤ 100%)”. The “CK1α substrate protein remaining %” value on CK1α is “B (80%< substrate protein remaining %≤ 100%)”. The “IKZF3 substrate protein remaining %” value at IKZF3 is reported as “A (0% ≤ substrate protein remaining % ≤ 80%)”. On WEE1, the “Wee1 substrate protein remaining %” value was “A (0% ≤ substrate protein remaining % ≤ 80%)”. Besides, the “IKZF 1 substrate protein remaining %” value on IKZF1 is recorded as “A (0% ≤ substrate protein remaining % ≤ 80%)”.

Turning to `Cc1nc(C2CCN(Cc3ccc4c(c3)CN(C3CCC(=O)NC3=O)C4=S)CC2)c2c3c(sc2n1)CCC3` (stereo not shown) [GT-09312, 3-(5-((4-(2-methyl-6,7-dihydro-5H-cyclopenta[4,5]thieno[2,3-d]pyrimidin-4-yl)piperidin-1-yl)methyl)-1-thioxoisoindolin-2-yl)piperidine-2,6-dione], the “GSPT1 substrate protein remaining %” value in the test on GSPT1 is on record as “A (0% ≤ substrate protein remaining % ≤ 80%)”. Also, in test [1], the inhibition at 0.5 µM is 60 to 80% and the inhibition at 2 µM was in the range of 80 to 100%. The “IKZF2 substrate protein remaining %” value at IKZF2 is given as “B (80%< substrate protein remaining %≤ 100%)”. Moreover, the “CK1α substrate protein remaining %” value on CK1α is “B (80%< substrate protein remaining %≤ 100%)”. Moreover, the “IKZF3 substrate protein remaining %” value at IKZF3 is given as “A (0% ≤ substrate protein remaining % ≤ 80%)”. The “Wee1 substrate protein remaining %” value on WEE1 was “B (80%< substrate protein remaining %≤ 100%)”. For the same molecule, the “IKZF 1 substrate protein remaining %” value at IKZF1 is “B (80%< substrate protein remaining %≤ 100%)”.

For orientation: inhibition means the relative decrease from the control value, in per cent.
